Measurements taken from patent US20230270826A1, “ANTIVIRAL USE OF L[…] GEFITINIB” (priority 2020, published 2023).

How the values were obtained:
interleukin 6 (IL-6) = test: Cytokine release assay (IL-6) in PBMC stimulated with SARS-CoV2 proteins; format: cell-based, human
[1] = tested on: genes from the COVID-19 model; test: Transcription fingerprinting by 3' RNA-sequencing of nucleocapsid-stimulated cells; format: cell-based, human
[2] = compound effect vs nucleocapsid stimulation

Structure (SMILES) | Immune modulation of interleukin 6 (IL-6) release (interleukin 6 (IL-6); nucleocapsid (N) stimulation vs Mock, FIG. 1) | Expression of genes up- or down-regulated 2-fold by nucleocapsid (N) vs Mock ([1]; N+compound vs N, FIG. 4) | Regulation of genes up-regulated at time 4 h N vs Mock ([1]; N-compound vs N, 4 h, FIG. 4 boxplots) | Regulation of genes downregulated in nucleocapsid (N) stimulation vs Mock [1, 2] | Regulation of genes upregulated in nucleocapsid (N) stimulation vs Mock [1, 2] | Immune modulation of interleukin 6 (IL-6) release (interleukin 6 (IL-6); spike (S) or spike trimer (St) stimulation vs Mock, GEF 0.5 μM and 5 μM, POM 100 ng/ml, FIG. 3)
COc1cc2ncnc(Nc3ccc(F)c(Cl)c3)c2cc1OCCCN1CCOCC1 [gefitinib] | stronger than by dexamethasone (DEX) alone | “normalized” in their expression | strongly down-regulated | upregulated | downregulated | –
Nc1cccc2c1C(=O)N(C1CCC(=O)NC1=O)C2=O (stereo not drawn) [pomalidomide] | – | – | – | – | – | does not show immune modulation
